Source: the supplement of paper PMC10307832

Legend:
Test in all cases: relative viability (nuclei count vs DMSO), 5 days (fraction); higher = more cells survive
[1] = compound: CN(C)CC1=CC(=CC=C1)N=C(C2=CC=CC=C2)C3=C(NC4=C3C=CC(=C4)C(=O)N(C)C)O + CC(=O)Nc1cccc(-n2c(=O)n(C3CC3)c(=O)c3c(Nc4ccc(I)cc4F)n(C)c(=O)c(C)c32)c1 [Trametinib] (partner 0.02 µM)
Summary of the method: (§1)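 One day after seeding in 1536-well plates, lung cancer cell lines were dosed by pin tool. Dosing was either single-drug or a fixed anchor-drug dose plus five library-drug doses (not always all listed) in √10 steps. After 5 days, nuclei were stained in one fix-and-stain step and counted on 4× images, and relative viability is the nuclei count of treated wells over that of vehicle wells, given as the median of duplicate plates.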

[2] = compound: CN(C)CC1=CC(=CC=C1)N=C(C2=CC=CC=C2)C3=C(NC4=C3C=CC(=C4)C(=O)N(C)C)O + CS(=O)(=O)CCNCc1ccc(-c2ccc3ncnc(Nc4ccc(OCc5cccc(F)c5)c(Cl)c4)c3c2)o1 [Lapatinib] (partner 2 µM)
Summary of the method: as §1

[3] = compound: CN(C)CC1=CC(=CC=C1)N=C(C2=CC=CC=C2)C3=C(NC4=C3C=CC(=C4)C(=O)N(C)C)O + O=C(c1cc(Cc2n[nH]c(=O)c3ccccc23)ccc1F)N1CCN(C(=O)C2CC2)CC1 [Olaparib] (partner 8 µM)
Summary of the method: as §1

[4] = compound: CN(C)CC1=CC(=CC=C1)N=C(C2=CC=CC=C2)C3=C(NC4=C3C=CC(=C4)C(=O)N(C)C)O + N=C(N)NC(=N)NCCc1ccccc1 [Phenformin] (partner 250 µM)
Summary of the method: as §1

Cell Line: COR-L23
- relative viability ([1]; first compound 0.08 µM): 0.688
- relative viability ([1]; first compound 0.253 µM): 0.551
- relative viability ([1]; first compound 0.8 µM): 0.589
- relative viability ([1]; first compound 2.53 µM): 0.517
- relative viability ([1]; first compound 8 µM): 0.567
- relative viability ([2]; first compound 0.08 µM): 1.05
- relative viability ([2]; first compound 0.253 µM): 0.895
- relative viability ([2]; first compound 0.8 µM): 0.922
- relative viability ([2]; first compound 2.53 µM): 0.92
- relative viability ([2]; first compound 8 µM): 0.975
- relative viability ([3]; first compound 0.08 µM): 0.36
- relative viability ([3]; first compound 0.253 µM): 0.308
- relative viability ([3]; first compound 0.8 µM): 0.397
- relative viability ([3]; first compound 2.53 µM): 0.314
- relative viability ([3]; first compound 8 µM): 0.327
- relative viability ([4]; first compound 0.08 µM): 0.495
- relative viability ([4]; first compound 0.253 µM): 0.413
- relative viability ([4]; first compound 0.8 µM): 0.402
- relative viability ([4]; first compound 2.53 µM): 0.423
- relative viability ([4]; first compound 8 µM): 0.421

Cell Line: LK-2
- relative viability ([1]; first compound 0.08 µM): 0.776
- relative viability ([1]; first compound 0.253 µM): 0.861
- relative viability ([1]; first compound 0.8 µM): 0.674
- relative viability ([1]; first compound 2.53 µM): 0.835
- relative viability ([1]; first compound 8 µM): 0.655
- relative viability ([2]; first compound 0.08 µM): 1.05
- relative viability ([2]; first compound 0.253 µM): 0.97
- relative viability ([2]; first compound 0.8 µM): 0.898
- relative viability ([2]; first compound 2.53 µM): 0.841
- relative viability ([2]; first compound 8 µM): 0.637
- relative viability ([3]; first compound 0.08 µM): 0.901
- relative viability ([3]; first compound 0.253 µM): 0.653
- relative viability ([3]; first compound 0.8 µM): 0.572
- relative viability ([3]; first compound 2.53 µM): 0.679
- relative viability ([3]; first compound 8 µM): 0.489
- relative viability ([4]; first compound 0.08 µM): 0.511
- relative viability ([4]; first compound 0.253 µM): 0.475
- relative viability ([4]; first compound 0.8 µM): 0.306
- relative viability ([4]; first compound 2.53 µM): 0.374
- relative viability ([4]; first compound 8 µM): 0.244

Cell Line: PC-14
- relative viability ([1]; first compound 0.08 µM): 0.932
- relative viability ([1]; first compound 0.253 µM): 0.904
- relative viability ([1]; first compound 0.8 µM): 0.968
- relative viability ([1]; first compound 2.53 µM): 0.8
- relative viability ([1]; first compound 8 µM): 0.76
- relative viability ([2]; first compound 0.08 µM): 0.33
- relative viability ([2]; first compound 0.253 µM): 0.264
- relative viability ([2]; first compound 0.8 µM): 0.38
- relative viability ([2]; first compound 2.53 µM): 0.313
- relative viability ([2]; first compound 8 µM): 0.311
- relative viability ([3]; first compound 0.08 µM): 0.325
- relative viability ([3]; first compound 0.253 µM): 0.212
- relative viability ([3]; first compound 0.8 µM): 0.23
- relative viability ([3]; first compound 2.53 µM): 0.294
- relative viability ([3]; first compound 8 µM): 0.312
- relative viability ([4]; first compound 0.08 µM): 0.572
- relative viability ([4]; first compound 0.253 µM): 0.545
- relative viability ([4]; first compound 0.8 µM): 0.617
- relative viability ([4]; first compound 2.53 µM): 0.602
- relative viability ([4]; first compound 8 µM): 0.734

Cell Line: SW 1573
- relative viability ([1]; first compound 0.08 µM): 0.56
- relative viability ([1]; first compound 0.253 µM): 0.572
- relative viability ([1]; first compound 0.8 µM): 0.587
- relative viability ([1]; first compound 2.53 µM): 0.637
- relative viability ([1]; first compound 8 µM): 0.515
- relative viability ([2]; first compound 0.08 µM): 1.1
- relative viability ([2]; first compound 0.253 µM): 1.24
- relative viability ([2]; first compound 0.8 µM): 1.13
- relative viability ([2]; first compound 2.53 µM): 1.08
- relative viability ([2]; first compound 8 µM): 0.955
- relative viability ([3]; first compound 0.08 µM): 0.362
- relative viability ([3]; first compound 0.253 µM): 0.416
- relative viability ([3]; first compound 0.8 µM): 0.419
- relative viability ([3]; first compound 2.53 µM): 0.523
- relative viability ([3]; first compound 8 µM): 0.377
- relative viability ([4]; first compound 0.08 µM): 0.322
- relative viability ([4]; first compound 0.253 µM): 0.31
- relative viability ([4]; first compound 0.8 µM): 0.378
- relative viability ([4]; first compound 2.53 µM): 0.294
- relative viability ([4]; first compound 8 µM): 0.31

Cell Line: NCI-H2087
- relative viability ([1]; first compound 0.08 µM): 0.21
- relative viability ([1]; first compound 0.253 µM): 0.247
- relative viability ([1]; first compound 0.8 µM): 0.201
- relative viability ([1]; first compound 2.53 µM): 0.196
- relative viability ([1]; first compound 8 µM): 0.166
- relative viability ([2]; first compound 0.08 µM): 1.08
- relative viability ([2]; first compound 0.253 µM): 0.835
- relative viability ([2]; first compound 0.8 µM): 1.1
- relative viability ([2]; first compound 2.53 µM): 0.942
- relative viability ([2]; first compound 8 µM): 1.05
- relative viability ([3]; first compound 0.08 µM): 0.571
- relative viability ([3]; first compound 0.253 µM): 0.507
- relative viability ([3]; first compound 0.8 µM): 0.41
- relative viability ([3]; first compound 2.53 µM): 0.536
- relative viability ([3]; first compound 8 µM): 0.537
- relative viability ([4]; first compound 0.08 µM): 0.478
- relative viability ([4]; first compound 0.253 µM): 0.522
- relative viability ([4]; first compound 0.8 µM): 0.403
- relative viability ([4]; first compound 2.53 µM): 0.48
- relative viability ([4]; first compound 8 µM): 0.31

Cell Line: NCI-H460
- relative viability ([1]; first compound 0.08 µM): 0.142
- relative viability ([1]; first compound 0.253 µM): 0.133
- relative viability ([1]; first compound 0.8 µM): 0.195
- relative viability ([1]; first compound 2.53 µM): 0.0771
- relative viability ([1]; first compound 8 µM): 0.163
- relative viability ([2]; first compound 0.08 µM): 1.1
- relative viability ([2]; first compound 0.253 µM): 0.967
- relative viability ([2]; first compound 0.8 µM): 1.04
- relative viability ([2]; first compound 2.53 µM): 0.776
- relative viability ([2]; first compound 8 µM): 0.741
- relative viability ([3]; first compound 0.08 µM): 0.46
- relative viability ([3]; first compound 0.253 µM): 0.447
- relative viability ([3]; first compound 0.8 µM): 0.433
- relative viability ([3]; first compound 8 µM): 0.428
- relative viability ([4]; first compound 0.08 µM): 0.592
- relative viability ([4]; first compound 0.253 µM): 0.491
- relative viability ([4]; first compound 0.8 µM): 0.558
- relative viability ([4]; first compound 2.53 µM): 0.43
- relative viability ([4]; first compound 8 µM): 0.449

Cell Line: NCI-H1734
- relative viability ([1]; first compound 0.08 µM): 0.625
- relative viability ([1]; first compound 0.253 µM): 0.701
- relative viability ([1]; first compound 0.8 µM): 0.735
- relative viability ([1]; first compound 2.53 µM): 0.698
- relative viability ([1]; first compound 8 µM): 0.579
- relative viability ([2]; first compound 0.08 µM): 1
- relative viability ([2]; first compound 0.253 µM): 1.08
- relative viability ([2]; first compound 0.8 µM): 1.02
- relative viability ([2]; first compound 2.53 µM): 1.02
- relative viability ([2]; first compound 8 µM): 0.881
- relative viability ([3]; first compound 0.08 µM): 0.547
- relative viability ([3]; first compound 0.253 µM): 0.611
- relative viability ([3]; first compound 0.8 µM): 0.672
- relative viability ([3]; first compound 2.53 µM): 0.633
- relative viability ([3]; first compound 8 µM): 0.515
- relative viability ([4]; first compound 0.08 µM): 0.354
- relative viability ([4]; first compound 0.253 µM): 0.408
- relative viability ([4]; first compound 0.8 µM): 0.385
- relative viability ([4]; first compound 2.53 µM): 0.376
- relative viability ([4]; first compound 8 µM): 0.368
